Measurements from patent publication US20230149432A1, “Human Milk Oligosaccharides for Improving Resistance of Organism Against Staphylococcus Aureus Infection” (Inner Mongolia Yili Industrial Group Co., Ltd., priority 2020, published 2023).

Legend:
[1] = system: Staphylococcus aureus ATCC25923; experiment: Nematode infection model and lifespan assay (survival of C. elegans infected by Staphylococcus aureus); format: in vivo, Caenorhabditis elegans; conditions: for dose-effect relationship of protection of nematode survival: doses up to 30 mg/mL
Description: Human milk oligosaccharide solutions were prepared with distilled water and incubated in Petri dishes containing a nematode growth medium at different final concentrations (1, 10, and 30 mg/mL, respectively). To better determine the range of the ideal concentration, a preliminary screening on the dose-effect relationship of 2′-FL was first performed, and the 2′-FL concentrations used were 0.001, 0.01, 0.1, 1 and 10 mg/mL. For the HMO compositions, included were a test concentration of 8 mg/mL and a 15 mg/mL, respectively, after the addition into the nematode growth medium.
Age-consistent nematodes were obtained and cultured in Petri dishes containing nematode agar media (nematode media containing E. coli OP50 as food) with different doses of HMO (1, 8, 10, 15, 30 mg/mL) for co-culture. After the nematodes came into adulthood, they were transferred to petri dishes inoculated with Staphylococcus aureus ATCC25923 (supplemented at approximately 10^8 to 10^9CFU/mL) to simulate the condition of infection by Staphylococcus aureus. The intervening substances (HMO) added in the infection stage of each group were the same as those in the culture stage. Two controls were used, one without the pathogen (C. elegans dish containing E. coli OP50) and one with Staphylococcus aureus infection without any intervention (dish with Staphylococcus aureus only). In addition, a group in which an intervening substance was added in the culture phase and no intervention in the infection phase, and a group in which the intervention substance was not added in the cultivation phase but added in the infection phase were set up.
Several days into the culture of the nematodes, their survival rate was counted on a daily basis. […] Two independent assays were carried out for each condition (that is, unless otherwise specified, the experimental data in the examples were the results of two independent experiments).
Statistical comparative analysis of survival curves was performed, and log rank survival significance analysis was performed using the GraphPad Prism 4 or GraphPad Prism 9 statistical software package. One-way ANOVA was used to analyze for significant differences in survival rates among the groups on the third or fifth day of infection. For the comparison of the groups, an asterisk*represents the degree of the significant difference, with ****indicating P<0.0001, and ***indicating P<0.001. NS means not significant.

[2] = system: Staphylococcus aureus ATCC25923; experiment: Disc diffusion bacteriostatic zone experiment; format: cell-based; conditions: positive control, 200 μg/mL; 37° C., 18 hours
Description: In order to determine whether the tested materials themselves have an antibacterial effect, a bacteriostatic zone experiment for disk diffusion was carried out. Discs were prepared with sterile filter paper impregnated with the tested HMO materials (10 mg/mL, 30 mg/mL), and the discs were dried overnight under sterile conditions. Staphylococcus aureus ATCC25923 (1.0×10^6CFU/mL) was spread evenly on the surface of a NGM agar plate, and then the discs were placed on the surface of the inoculated agar plate petri dish. Gentamicin (200 μg/mL) was used as a positive control. All dishes were incubated at 37° C. for 18 hours.
In order to investigate whether the protective effects of individual HMOs or their compositions against Staphylococcus aureus infection, as presented in previous tests, were derived from direct bactericidal or bacteriostatic function, a test was carried out in which the test material was incubated with the bacteria population and observed whether an bacteriostatic zone of was formed. As shown in the figure, at two different concentration (left: 10 mg/mL, right: 30 mg/mL), none of the human milk oligosaccharides alone formed a transparent annular bacteriostatic zone around the inoculation site. […]

[3] = 1 mg/mL, vs infected control without intervention
[4] = 10 mg/mL, vs infected control without intervention
[5] = 30 mg/mL, vs infected control without intervention

| Compound | effect on nematode survival rate after Staphylococcus aureus infection [1, 3] | effect on nematode survival rate after Staphylococcus aureus infection [1, 4] | effect on nematode survival rate after Staphylococcus aureus infection [1, 5] | dose-effect relationship of protection of nematode survival [1] | survival rate of nematodes compared with 2′-FL ([1]; infection for 3 days, 3-FL 10 mg/mL vs 2′-FL 30 mg/mL) | protection of nematodes compared with 2′-FL at the same dose ([1]; same dose, infection for 3 days) | survival rate of nematodes ([1]; under protection of 6′-SL, 10 or 30 mg/mL, infected for 3 days) | effect on lifespan of nematodes after Staphylococcus aureus infection ([1]; 15 mg/mL) | effect on nematode survival rate after Staphylococcus aureus infection ([1]; 15 mg/mL, another batch of experiments) | effect on nematode survival rate after Staphylococcus aureus infection ([1]; doses at 1 mg/mL or less, survival curve vs infected control without intervention) | formation of a transparent annular bacteriostatic zone [2] |
| --- | --- | --- | --- | --- | --- | --- | --- | --- | --- | --- | --- |
| 3-fucosyllactose [Composition 3-FL] | no effect | better protective function (P<0.0001) | better protective function (P<0.0001) | greater protection shown at higher doses | the same effect was achieved with 3-FL at 10 mg/mL as that with 2′-FL at 30 mg/mL | more effective in protecting nematodes from Staphylococcus aureus infection than 2′-FL | – | – | – | – | – |
| CC(=O)N[C@H]1[C@H](O[C@H]2[C@@H](O)[C@@H](CO)O[C@@H](O[C@H]3[C@H](O)[C@@H](O)C(O)O[C@@H]3CO)[C@@H]2O)O[C@H](CO)[C@@H](O)[C@@H]1O[C@@H]1O[C@H](CO)[C@H](O)[C@H](O)[C@H]1O (stereo partly shown) [LNT, Lacto-N-Tetraose] | not greatly improved | significantly improved | significantly improved | has a dose-effect relationship | – | – | – | – | – | – | – |
| CC(=O)N[C@H]1[C@H]([C@H](O)[C@H](O)CO)O[C@@](OC[C@H]2O[C@@H](O[C@H]3[C@H](O)[C@@H](O)[C@H](O)O[C@@H]3CO)[C@H](O)[C@@H](O)[C@H]2O)(C(=O)O)C[C@@H]1O [6′-SL, 6′-sialyllactose] | not greatly improved | significantly improved | significantly improved | has a dose-effect relationship | – | – | up to 75% | – | – | – | – |
| CC(=O)N[C@H]1[C@H]([C@H](O)[C@H](O)CO)O[C@@](O[C@H]2[C@@H](O)[C@@H](CO)O[C@@H](O[C@H]3[C@H](O)[C@@H](O)C(O)O[C@@H]3CO)[C@@H]2O)(C(=O)O)C[C@@H]1O (stereo partly shown) [3′-SL, 3′-sialyllactose] | no significant effect was observed | no significant effect was observed | no significant effect was observed | – | – | – | – | – | – | – | – |
| 2′-fucosyllactose [2′-FL] | – | considerable increase in nematode survival rate which was significant (P<0.0001) | the protective effect was significantly increased, and the effect was significant (P<0.0001) | dose-dependent and optimal at 30 mg/mL | – | – | – | significantly prolongs the lifespan of nematodes | significantly improves the survival rate of nematodes | did not show any effects | – |
| Gentamicin | – | – | – | – | – | – | – | – | – | – | showed a bacteriostatic effect |
